Results: US5536848A, “Bioactive acetogenins and derivatives” (Purdue Research Foundation, priority 1994, dated 1996)
Values after ≈ are worked out from the molar mass of the structure shown. Like-named read-outs stand apart in the source and are kept apart here.

Tests used:
rat liver mitochondria = assay: Rat mitochondrial bioassay (RMB), inhibition of oxygen uptake; format: biochemical; conditions: for RMB IC50: Table 17, oxygen consumption of rat liver mitochondria, parent and acetal derivative in the same run; for mitochondrial inhibition: rat liver mitochondria, result in words
Procedure: (§1) The brine shrimp lethality test (BST), on newly hatched naupleii, was performed in our laboratory as previously described. McLaughlin, Methods in Plant Biochemistry, Vol. 6, Hostettmann, Academic Press, London, pp. 1-33 (1991). Seven day cytotoxicities against human solid tumor cells were measured at the Cell Culture Laboratory, Purdue Cancer Center, for the A-549 lung carcinoma, MCF-7 breast carcinoma, and HT-29 colon adenocarcinoma. The respiratory functions of rat liver mitochondria (RMB) were measured polarographically by determination of their rates of oxygen consumption after the addition of acetogenins or their derivatives.
The oxidative phosphorylation pathway (or electron transport chain) is responsible for oxidizing NADH to NAD^+ and producing ATP from ADP and phosphate within the mitochondria. There are five enzyme complexes in this pathway: NADH-ubiquinone reductase (complex I), succinate-ubiquinone reductase (complex II), ubiquinone-cytochrome c reductase (complex III), cytochrome c oxidase (complex IV) and the F0 F1 -ATPase complex (complex V). The end point of the oxidative phosphorylation pathway is the reduction of oxygen (O2) to water in the mitochondria (thus, it is also called respiration), coupled with the synthesis of ATP by complex V. State 4 respiration is the oxidation of substrates in the absence of a phosphate acceptor (e.g., ADP). State 3 respiration occurs when a phosphate acceptor is present and oxygen utilization increases. The ratio of State 3 respiration to State 4 respiration is the respiratory control ratio (RCR).
The process of respiration can be measured by using an oxygen electrode to detect the amount of oxygen present in the assay cell. If respiration is occurring normally, the concentration of oxygen should slowly decrease as it is reduced to water. However, if there is some type of inhibition of oxidative phosphorylation occurring, the oxygen level will no longer decrease at the same rate. This rate of oxygen usage can be visualized by a chart recorder connected to the oxygen electrode. At normal respiration,a decreasing baseline slope will be established. During inhibition, however, the baseline slope should decrease (i.e., the slope will move closer to zero), since the oxygen present is no longer being reduced. In other words, the oxygen concentration in the assay cell is no longer decreasing at the same rate as in normal respiration. Furthermore, inhibition sites at specific complexes can be determined by competitive inhibition studies. This is accomplished by addition of a known inhibitor of, e.g., complex I, followed by the new respiration-inhibiting compound. […] This can be verified by trying inhibitors at other sites and by reversing the order, i.e., adding the new compound and then the known inhibitor.
The method for isolating rat liver mitochondria essentially followed the published methodology. Ahammadsahib et al., Life Sciences, 53, pgs. 1113-1120 (1993). The isolation buffer used for the isolation of mitochondria from rat liver consisted of 4 mM Tris-HC1, 0.5 mM EDTA, and 250 mM sucrose at a pH of 7.4. The isolation buffer was kept at refrigeration temperature at all times by storing on ice during the whole procedure. The rats were supplied by Sprague-Dawley, were male, and weighed approximately 300-320 grams. They were sacrificed with carbon dioxide, and the livers were removed and immediately placed in the isolation buffer on ice. The livers were then rinsed with several washings of cold buffer, cut into pieces, and homogenized. The homogenates were then centrifuged (Sorvall Superspeed RC2-B, 4° C) for 10 minutes at approximately 2000 rpms; the supernatant was next centrifuged for 20 minutes at approximately 9000 rpms. The pellet was reserved and resuspended in 2 ml of assay buffer with a glass pipet. The assay buffer consisted of 100 mM KC1, 5 mM KH2 PO4, 1 mM EDTA, 5 mM glutamate, 1 mM malate, and 20 mM Tris-HCl at a pH of 7.4 and was stored at room temperature. […]

[1] = tested on: brine shrimp (Artemia salina Leach); assay: Brine shrimp lethality test (BST); format: in vivo; conditions: Artemia salina, read-out: BST LC50
Procedure: (§2) The brine shrimp (Artemia salina Leach) test (BST) was performed as modified to determine LC50 values in μg/ml. Seven-day in vitro cytotoxicity tests against human tumor cell lines were carried out at the Purdue Cancer Center, using standard protocols for A-549 (human lung carcinoma), MCF-7 (human breast carcinoma) and HT-29 (human colon carcinoma) with adriamycin as a positive control. The reported ED50 values in μg/ml (Table 5) were tabulated from the same run in order to facilitate comparison for the SAR's.
(§3) Bioassays. The brine shrimp (Artemia salina Leach) test (BST) was performed as modified. Zhao et al., Phytochemistry, 33, p. 1065 (1993). Seven-day in vitro cytotoxicity tests against human tumor cell lines were carried out at the Purdue Cancer Center, using standard protocols for A-549 (human lung carcinoma), Gu, Z. M.; Fang, X.-P.; Miesbauer, L. R., Smith, D. L.; and McLaughlin, J. L., 30, 31, and 32-Hydroxybullatacinones: Bioactive Terminally-Hydroxylated Annonaceous Acetogenins from Annona bullata., J. Nat. Prod., 1993, 56, 870-876; MCF-7 (human breast carcinoma) McLaughlin, J. L., Chang, C.-J., and Smith, D. L., Simple Bench-Top Bioassays (Brine Shrimp and Potato Discs) for the Discoveries of Plant Antitumor Compounds: A Review of Recent Progress. In Kinghorn, A. D., Balandrin, J. (Eds): "Human Medicinal Agents from Plants", ACS Symposium Series, Washington, D.C., American Chemical Society, 1993, pp. 112-137; and HT-29 (human colon carcinoma), Mclaughlin, J.L., Chang, C.-J., Smith, D.L., "'Bench-Top' Bioassays for the Discovery of Bioactive Natural Products: An Update", in Rahman, Atta-ur- (Ed): "Studies in Natural Product Chemistry", Vol. 9, Amsterdam, Elsevier, 1991, pp. 383-409, with adriamycin as a positive control. The reported values (Table IV) were tabulated from the same run in order to facilitate comparison for the SAR's.
(§4) Bioassay. The extracts, fractions, and isolates were routinely evaluated for lethality to brine shrimp larvae (BST). Cytotoxicities against human solid tumor cells were measured at the Purdue Cell Culture Laboratory, Purdue Cancer Center, for the A-549 lung carcinoma, MCF-7 breast carcinoma, and HT-29 colon adenocarcinoma.
as §1

[2] = tested on: MCF-7 (human breast carcinoma); assay: Seven-day in vitro cytotoxicity, MCF-7; format: cell-based; conditions: for IC50: MCF7, 168 h
Procedure: as §2, §3, §4, §1

[3] = tested on: HT-29 (human colon adenocarcinoma); assay: Seven-day in vitro cytotoxicity, HT-29; format: cell-based; conditions: for IC50: HT-29, 168 h
Procedure: as §2, §3, §4, §1

[4] = tested on: A-549 (human lung carcinoma); assay: Seven-day in vitro cytotoxicity, A-549; format: cell-based; conditions: for IC50: A549, 168 h
Procedure: as §2, §3, §4, §1

[5] = tested on: HT-29 (human colon adenocarcinoma); assay: Seven-day in vitro cytotoxicity, HT-29; format: cell-based; conditions: HT-29, 168 h, read-out: HT-29 LC50, Table 5, same run
[6] = tested on: A2780 human ovarian cancer xenografts; conditions: 50 μg/kg; athymic mice bearing A2780 human ovarian cancer xenografts; cited from earlier work
[7] = read-out: MCF-7 ED50, Table 17, seven day cytotoxicity, same run
[8] = read-out: HT-29 ED50, Table 17, seven day cytotoxicity, same run
[9] = read-out: MCF-7 LC50, Table 5, seven-day cytotoxicity, same run
[10] = Table 17, seven day cytotoxicity, same run, read-out: MCF-7 ED50
[11] = Table 17, seven day cytotoxicity, same run, read-out: HT-29 ED50
[12] = Table 17, seven day cytotoxicity, same run, read-out: A-549 ED50

CCCCCCCCCC[C@@H](O)[C@H]1CC[C@H]([C@H](O)CC[C@H](O)[C@@H]2CC[C@@H](CCCCCCC[C@@H]3CC(CC(C)=O)C(=O)O3)O2)O1 (stereo partly drawn) [Compound 24, (2,4-Cis and trans)bullatanocinones, reference compound]
RMB IC50 (rat liver mitochondria): 61.1 n moles/Lt/mg protein | LC50 ([1]; Table 17, same run): 280 ng/mL (≈ 438 nM) | IC50 [2, 7]: 293 ng/mL (≈ 459 nM) | IC50 [3, 8]: 2.34e-05 ng/mL (≈ 3.66e-05 nM) | IC50 ([4]; read-out: A-549 ED50): 0.643 ng/mL (≈ 1.01 nM)

CCCCCCCCCCC(O)C1CCC(C2CCC(C(O)CCCCC(O)CCCCCCCC3=CC(C)OC3=O)O2)O1 (stereo not drawn) [Compound 1, Bullatin]
mitochondrial inhibition (rat liver mitochondria): high activity | LC50 ([1]; Table 5, brine shrimp larvae): 4 ng/mL (≈ 6.42 nM) | IC50 [2, 9]: 0.00833 ng/mL (≈ 0.0134 nM) | IC50 [5]: 0.00378 ng/mL (≈ 0.00607 nM) | IC50 ([4]; read-out: A-549 LC50): 0.00939 ng/mL (≈ 0.0151 nM)

CCCCCCCCCC[C@H](O)[C@H]1CC[C@H]([C@H](O)CC[C@H](O)[C@@H]2CC[C@@H](CCCCCCC[C@@H](O)CC3=C[C@H](C)OC3=O)O2)O1 [Compound 18, Bullatalicin, reference compound]
RMB IC50 (rat liver mitochondria): 19.2 n moles/Lt/mg protein | LC50 ([1]; Table 17, same run): 1200 ng/mL (≈ 1880 nM) | IC50 [2, 10]: 262 ng/mL (≈ 410 nM) | IC50 [3, 11]: 6.48e-05 ng/mL (≈ 0.000101 nM)

CCCCCCCCCCCCCC[C@@H](O)[C@H]1CC[C@H]([C@H]2CC[C@@H](CCCCC[C@@H](O)CC3=C[C@H](C)OC3=O)OCO2)O1 [Compound 9, 10,13-Formaldehyde acetal derivative of goniothalamicin]
RMB IC50 (rat liver mitochondria): 203.1 n moles/Lt/mg protein | LC50 ([1]; Table 17, same run): 53.8 ng/mL (≈ 88.4 nM) | IC50 [2, 10]: 0.409 ng/mL (≈ 0.672 nM) | IC50 [3, 11]: 0.0219 ng/mL (≈ 0.036 nM) | IC50 [4, 12]: 1050 ng/mL (≈ 1720 nM)

CCCCCC[C@H]1CCC[C@@H]([C@H]2CC[C@H]([C@H]3CC[C@@H]([C@@H]4CC[C@@H](CCCCCCCCCC5=C[C@H](C)OC5=O)O4)OCO3)O2)OCO1 [Compound 14, 16,19- and 24,28-bis-formaldehyde acetal derivative]
LC50 ([1]; Table 17, same run): 10200 ng/mL (≈ 15400 nM) | IC50 [2, 10]: 1 ng/mL (≈ 1.51 nM) | IC50 [3, 11]: 0.000289 ng/mL (≈ 0.000436 nM) | IC50 [4, 12]: 1780 ng/mL (≈ 2680 nM)

CCCCCCCCCCCCCC[C@@H](O)[C@H](O)CC[C@H](O)[C@@H]1CC[C@@H](CCCCC[C@@H](O)CC2=C[C@H](C)OC2=O)O1 [Compound 10, Gigantetrocin A, reference compound]
RMB IC50 (rat liver mitochondria): 287.1 n moles/Lt/mg protein | LC50 ([1]; Table 17, same run): 600 ng/mL (≈ 1010 nM) | IC50 [2, 10]: 0.355 ng/mL (≈ 0.595 nM) | IC50 [4, 12]: 4.52e-05 ng/mL (≈ 7.57e-05 nM)

CCCCCCCCCC[C@H](O)[C@H]1CC[C@H]([C@H](O)CC[C@H](O)[C@@H]2CC[C@@H](CCCCCCC[C@@H]3CC(CC(C)=O)C(=O)O3)O2)O1 (stereo partly drawn) [Compound 26, (2,4-Cis and trans)-bullatalicinones, reference compound]
RMB IC50 (rat liver mitochondria): 23.0 n moles/Lt/mg protein | LC50 ([1]; Table 17, same run): 470 ng/mL (≈ 736 nM) | IC50 [2, 7]: 1.57 ng/mL (≈ 2.46 nM) | IC50 ([4]; read-out: A-549 ED50): 0.0562 ng/mL (≈ 0.088 nM)

CCCCCCCCCCCCCC[C@@H](O)[C@H]1CC[C@H]([C@H](O)CC[C@H](O)CCCCC[C@@H](O)CC2=C[C@H](C)OC2=O)O1 [Compound 8, Goniothalamicin, reference compound]
RMB IC50 (rat liver mitochondria): 554.8 n moles/Lt/mg protein | LC50 ([1]; Table 17, same run): 37000 ng/mL (≈ 62000 nM) | IC50 [2, 10]: 0.00573 ng/mL (≈ 0.0096 nM) | IC50 [4, 12]: 0.00711 ng/mL (≈ 0.0119 nM)

CCCCCCCCCC[C@H](O)[C@H]1CC[C@H]([C@H]2CC[C@H]([C@H](O)CCCCCCCCCC[C@@H](O)CC3=C[C@H](C)OC3=O)O2)O1 [Bullatacin, reference compound]
mitochondrial inhibition (rat liver mitochondria): high activity | tumor growth inhibition (TGI) [6]: 67%

COc1cccc2c1C(=O)c1c(O)c3c(c(O)c1C2=O)C[C@@](O)(C(=O)CO)C[C@@H]3O[C@H]1C[C@H](N)[C@H](O)[C@H](C)O1 [Adriamycin, adriamycin, reference compound]
LC50 ([1]; Table 5, brine shrimp larvae): 257 ng/mL (≈ 473 nM) | LC50 ([1]; Table 12): 80 ng/mL (≈ 147 nM) | LC50 ([1]; Table 17, same run): 80 ng/mL (≈ 147 nM) | IC50 [2, 7]: 401 ng/mL (≈ 738 nM) | IC50 [2, 9]: 17.6 ng/mL (≈ 32.4 nM) | IC50 ([2]; read-out: MCF-7 LC50, Table 12, same run): 231 ng/mL (≈ 425 nM) | EC50 ([2]; MCF7, read-out: MCF-7): 519 ng/mL (≈ 955 nM) | IC50 [3, 8]: 35.5 ng/mL (≈ 65.3 nM) | IC50 ([3]; read-out: HT-29 LC50, Table 12, same run): 39.2 ng/mL (≈ 72.1 nM) | EC50 ([3]; HT-29, read-out: HT-29): 37.2 ng/mL (≈ 68.4 nM) | IC50 [5]: 0.153 ng/mL (≈ 0.281 nM) | IC50 ([4]; read-out: A-549 ED50): 4.19 ng/mL (≈ 7.71 nM) | IC50 ([4]; read-out: A-549 LC50): 0.104 ng/mL (≈ 0.191 nM) | EC50 ([4]; A549, read-out: A-549): 8.5 ng/mL (≈ 15.6 nM)
